Source: patent publication US12077503B2, “Substituted cyclic amides and their use as herbicides” (FMC CORPORATION, priority 2015, dated 2024)

What was measured:
Type in all cases: in vivo
[1] = system: barnyardgrass (Echinochloa crus-galli); assay: Test G Post-Emergence Protocol; details: Echinochloa crus-galli, post-emergence, 312 h, read-out: Barnyardgrass damage rating; for pest or weed control at 15.625 g/ha: 15.625 g ai/ha, evaluated after 13 days (100=total damage to plant; 0=no damage to plant); for pest or weed control at 62.5 g/ha: 62.5 g ai/ha; for pest or weed control at 62.5 g/ha / pest or weed control at 250 g/ha: evaluated after 13 days, 100=total damage to plant, 0=no damage to plant; for pest or weed control at 250 g/ha: 250 g ai/ha
Method in brief: (§1)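 Scores run 0 (no damage) to 100 (total damage) and were taken 13 days after spraying. Plants had been raised in pots for 8 days under glasshouse control (24/16 °C, 14 h photoperiod, 65% humidity) and then treated at 15.625, 62.5 or 250 g/ha.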

[2] = system: giant foxtail (Setaria faberi); assay: Test G Post-Emergence Protocol; details: Setaria faberi, post-emergence, 312 h, read-out: Foxtail, Giant damage rating; for pest or weed control at 15.625 g/ha: 15.625 g ai/ha, evaluated after 13 days (100=total damage to plant; 0=no damage to plant); for pest or weed control at 62.5 g/ha: 62.5 g ai/ha; for pest or weed control at 62.5 g/ha / pest or weed control at 250 g/ha: evaluated after 13 days, 100=total damage to plant, 0=no damage to plant; for pest or weed control at 250 g/ha: 250 g ai/ha
Method in brief: as §1

[3] = system: ivy-leaved morning glory (Ipomoea hederacea); assay: Test G Post-Emergence Protocol; details: Ipomoea, post-emergence, 312 h, read-out: Morningglory, Ivy-leaved damage rating; for pest or weed control at 15.625 g/ha: 15.625 g ai/ha, evaluated after 13 days (100=total damage to plant; 0=no damage to plant); for pest or weed control at 62.5 g/ha: 62.5 g ai/ha; for pest or weed control at 62.5 g/ha / pest or weed control at 250 g/ha: evaluated after 13 days, 100=total damage to plant, 0=no damage to plant; for pest or weed control at 250 g/ha: 250 g ai/ha
Method in brief: as §1

[4] = system: corn (Zea mays); assay: Test G Post-Emergence Protocol; details: Zea mays, post-emergence, 312 h, read-out: Corn damage rating; for plant injury at 15.625 g/ha: 15.625 g ai/ha, evaluated after 13 days (100=total damage to plant; 0=no damage to plant); for plant injury at 62.5 g/ha: 62.5 g ai/ha; for plant injury at 62.5 g/ha / plant injury at 250 g/ha: evaluated after 13 days, 100=total damage to plant, 0=no damage to plant; for plant injury at 250 g/ha: 250 g ai/ha
Method in brief: as §1

[5] = system: redroot pigweed (Amaranthus retroflexus); assay: Test G Post-Emergence Protocol; details: Amaranthus retroflexus, post-emergence, 312 h, read-out: Pigweed, Redroot damage rating; for pest or weed control at 15.625 g/ha: 15.625 g ai/ha, evaluated after 13 days (100=total damage to plant; 0=no damage to plant); for pest or weed control at 62.5 g/ha: 62.5 g ai/ha; for pest or weed control at 62.5 g/ha / pest or weed control at 250 g/ha: evaluated after 13 days, 100=total damage to plant, 0=no damage to plant; for pest or weed control at 250 g/ha: 250 g ai/ha
Method in brief: as §1

[6] = system: velvetleaf (Abutilon theophrasti); assay: Test G Post-Emergence Protocol; details: Abutilon theophrasti, post-emergence, 312 h, read-out: Velvetleaf damage rating; for pest or weed control at 15.625 g/ha: 15.625 g ai/ha, evaluated after 13 days (100=total damage to plant; 0=no damage to plant); for pest or weed control at 62.5 g/ha: 62.5 g ai/ha; for pest or weed control at 62.5 g/ha / pest or weed control at 250 g/ha: evaluated after 13 days, 100=total damage to plant, 0=no damage to plant; for pest or weed control at 250 g/ha: 250 g ai/ha
Method in brief: as §1

[7] = system: barnyardgrass (Echinochloa crus-galli); assay: Test G Pre-Emergence Protocol; details: Echinochloa crus-galli, pre-emergence, 312 h, evaluated after 13 days; for pest or weed control at 15.625 g/ha: 15.625 g ai/ha; for pest or weed control at 15.625 g/ha / pest or weed control at 250 g/ha: read-out: Barnyardgrass damage rating (100=total damage to plant; 0=no damage to plant); for pest or weed control at 62.5 g/ha: 62.5 g ai/ha, 100=total damage to plant, 0=no damage to plant, read-out: Barnyardgrass damage rating; for pest or weed control at 250 g/ha: 250 g ai/ha
Method in brief: (§2)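 Spraying took place one day after sowing, at 15.625, 62.5 or 250 g/ha, using an acetone/water (50:50) spray solution containing 0.5% Tween 20. Plants were kept under glasshouse conditions (24/16 °C, 14 h light, 65% humidity, watered twice daily), and injury was rated 0–100 at day 13.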

[8] = system: giant foxtail (Setaria faberi); assay: Test G Pre-Emergence Protocol; details: Setaria faberi, pre-emergence, 312 h, evaluated after 13 days; for pest or weed control at 15.625 g/ha: 15.625 g ai/ha; for pest or weed control at 15.625 g/ha / pest or weed control at 250 g/ha: read-out: Foxtail, Giant damage rating (100=total damage to plant; 0=no damage to plant); for pest or weed control at 62.5 g/ha: 62.5 g ai/ha, 100=total damage to plant, 0=no damage to plant, read-out: Foxtail, Giant damage rating; for pest or weed control at 250 g/ha: 250 g ai/ha
Method in brief: as §2

[9] = system: ivy-leaved morning glory (Ipomoea hederacea); assay: Test G Pre-Emergence Protocol; details: Ipomoea, pre-emergence, 312 h, evaluated after 13 days; for pest or weed control at 62.5 g/ha: 62.5 g ai/ha, 100=total damage to plant, 0=no damage to plant, read-out: Morningglory, Ivy-leaved damage rating; for pest or weed control at 250 g/ha: 250 g ai/ha; for pest or weed control at 250 g/ha / pest or weed control at 15.625 g/ha: read-out: Morningglory, Ivy-leaved damage rating (100=total damage to plant; 0=no damage to plant); for pest or weed control at 15.625 g/ha: 15.625 g ai/ha
Method in brief: as §2

[10] = system: corn (Zea mays); assay: Test G Pre-Emergence Protocol; details: Zea mays, pre-emergence, 312 h, evaluated after 13 days; for plant injury at 15.625 g/ha: 15.625 g ai/ha; for plant injury at 15.625 g/ha / plant injury at 250 g/ha: read-out: Corn damage rating (100=total damage to plant; 0=no damage to plant); for plant injury at 62.5 g/ha: 62.5 g ai/ha, 100=total damage to plant, 0=no damage to plant, read-out: Corn damage rating; for plant injury at 250 g/ha: 250 g ai/ha
Method in brief: as §2

[11] = system: redroot pigweed (Amaranthus retroflexus); assay: Test G Pre-Emergence Protocol; details: Amaranthus retroflexus, pre-emergence, 312 h, evaluated after 13 days; for pest or weed control at 15.625 g/ha: 15.625 g ai/ha; for pest or weed control at 15.625 g/ha / pest or weed control at 250 g/ha: read-out: Pigweed, Redroot damage rating (100=total damage to plant; 0=no damage to plant); for pest or weed control at 62.5 g/ha: 62.5 g ai/ha, 100=total damage to plant, 0=no damage to plant, read-out: Pigweed, Redroot damage rating; for pest or weed control at 250 g/ha: 250 g ai/ha
Method in brief: as §2

[12] = system: velvetleaf (Abutilon theophrasti); assay: Test G Pre-Emergence Protocol; details: Abutilon theophrasti, pre-emergence, 312 h, evaluated after 13 days; for pest or weed control at 15.625 g/ha: 15.625 g ai/ha; for pest or weed control at 15.625 g/ha / pest or weed control at 250 g/ha: read-out: Velvetleaf damage rating (100=total damage to plant; 0=no damage to plant); for pest or weed control at 62.5 g/ha: 62.5 g ai/ha, 100=total damage to plant, 0=no damage to plant, read-out: Velvetleaf damage rating; for pest or weed control at 250 g/ha: 250 g ai/ha
Method in brief: as §2

Compound | pest or weed control at 15.625 g/ha [1] [%] | pest or weed control at 62.5 g/ha [1] [%] | pest or weed control at 250 g/ha [1] [%] | pest or weed control at 15.625 g/ha [2] [%] | pest or weed control at 62.5 g/ha [2] [%] | pest or weed control at 15.625 g/ha [3] [%] | pest or weed control at 62.5 g/ha [3] [%] | pest or weed control at 250 g/ha [3] [%] | plant injury at 15.625 g/ha [4] [%] | plant injury at 62.5 g/ha [4] [%] | plant injury at 250 g/ha [4] [%] | pest or weed control at 15.625 g/ha [5] [%] | pest or weed control at 62.5 g/ha [5] [%] | pest or weed control at 250 g/ha [5] [%] | pest or weed control at 15.625 g/ha [6] [%] | pest or weed control at 62.5 g/ha [6] [%] | pest or weed control at 250 g/ha [6] [%] | pest or weed control at 15.625 g/ha [7] [%] | pest or weed control at 62.5 g/ha [7] [%] | pest or weed control at 250 g/ha [7] [%] | other results
CCOc1cc(C2CN(C)C(=O)C2C(=O)Nc2cccc(F)c2F)ccc1OC (stereo not shown) [Compound 1719] | 0 | 60 | 80 | 60 | 80 | 0 | 10 | 20 | 0 | 0 | 60 | 0 | 0 | 0 | 0 | 0 | 0 | 30 | 70 | 90 | pest or weed control at 250 g/ha [2]: 80%; pest or weed control at 15.625 g/ha [8]: 70%; pest or weed control at 62.5 g/ha [8]: 90%; pest or weed control at 250 g/ha [8]: 90%; pest or weed control at 62.5 g/ha [9]: 0%; pest or weed control at 250 g/ha [9]: 0%; plant injury at 15.625 g/ha [10]: 0%; plant injury at 62.5 g/ha [10]: 10%; plant injury at 250 g/ha [10]: 60%; pest or weed control at 15.625 g/ha [11]: 0%; pest or weed control at 62.5 g/ha [11]: 0%; pest or weed control at 250 g/ha [11]: 20%; pest or weed control at 15.625 g/ha [12]: 0%; pest or weed control at 62.5 g/ha [12]: 0%; pest or weed control at 250 g/ha [12]: 0%
CC(C)Oc1cc(F)cc(C2CN(C)C(=O)C2C(=O)Nc2cccc(F)c2F)c1 (stereo not shown) [Compound 1724] | 40 | 70 | 90 | 70 | 70 | 40 | 30 | 70 | 0 | 30 | 90 | 0 | 10 | 60 | 0 | 10 | 70 | 50 | 70 | 90 | pest or weed control at 250 g/ha [2]: 90%; pest or weed control at 15.625 g/ha [8]: 70%; pest or weed control at 62.5 g/ha [8]: 70%; pest or weed control at 250 g/ha [8]: 90%; pest or weed control at 15.625 g/ha [9]: 0%; pest or weed control at 62.5 g/ha [9]: 0%; pest or weed control at 250 g/ha [9]: 0%; plant injury at 15.625 g/ha [10]: 0%; plant injury at 62.5 g/ha [10]: 40%; plant injury at 250 g/ha [10]: 90%; pest or weed control at 15.625 g/ha [11]: 0%; pest or weed control at 62.5 g/ha [11]: 0%; pest or weed control at 250 g/ha [11]: 0%; pest or weed control at 15.625 g/ha [12]: 0%; pest or weed control at 62.5 g/ha [12]: 0%; pest or weed control at 250 g/ha [12]: 0%
CN1CC(C2CCN=C(C(C)(C)C)N2)C(C(=O)Nc2ccc(F)c(F)c2F)C1=O (stereo not shown) [Compound 1771] | 0 | 0 | 0 | 0 | 0 | 0 | 0 | 0 | 0 | 0 | 0 | 0 | 0 | 0 | 0 | 0 | 0 | 0 | 0 | 0 | pest or weed control at 15.625 g/ha [8]: 0%; pest or weed control at 62.5 g/ha [8]: 0%; pest or weed control at 250 g/ha [8]: 0%; pest or weed control at 15.625 g/ha [9]: 0%; pest or weed control at 62.5 g/ha [9]: 0%; pest or weed control at 250 g/ha [9]: 0%; plant injury at 15.625 g/ha [10]: 0%; plant injury at 62.5 g/ha [10]: 0%; plant injury at 250 g/ha [10]: 0%; pest or weed control at 15.625 g/ha [11]: 0%; pest or weed control at 62.5 g/ha [11]: 0%; pest or weed control at 250 g/ha [11]: 0%; pest or weed control at 15.625 g/ha [12]: 0%; pest or weed control at 62.5 g/ha [12]: 0%; pest or weed control at 250 g/ha [12]: 0%
